Experimental data taken from patent publication EP4700025A1, “AMIDE COMPOUND, PHARMACEUTICAL COMPOSITION COMPRISING SAME, AND USE THEREOF” (Suzhou Genhouse Bio Co., Ltd., priority 2023, dated 2024).
Like-named read-outs stand apart in the source and are kept apart here. Values belong to the compound of their own block, whether it stands above or below them.

Assays:
PRMT5 = PRMT5 (Homo sapiens, UniProt O14744); assay: Inhibitory activity against enzymatic activity of PRMT5 (fluorescence polarization); type: biochemical; details: PRMT5 25 nM, SAM 1 µM, polypeptide 1 µM, MTA 2 µM; 37 °C 2 hours
Method: The compounds were prepared into 10 mM stock solutions using DMSO, and then 9 concentration gradients (with an initial concentration of 10 µM followed by 1:5 dilution) were prepared using a buffer (50 mM Tris-HCl pH 8.5, 5 mM MgCl2, 4 mM DTT, 0.01% Triton X-100, 0.1 M NaCl, 0.5% DMSO), and each well received 5 µL of the diluted compound solutions. SAM, a polypeptide, and MTA were prepared using a buffer to final concentrations of 1 µM, 1 µM, and 2 µM, respectively, and were added to each well in a total of 5 µL. Meanwhile, an MTA-free group was set as a control. […] Subsequently, a mixture of 2.5 µL of stop buffer A, 2.5 µL of an 8× MT assay mixture (final concentration: 1×), and 24 µg/mL AMP2/GMP2 antibodies (final concentration: 3 µg/mL) was added. The resulting mixture was incubated at room temperature for 1.5 hours, and fluorescence polarization (FP) was measured (Ex 633, Em 647). Meanwhile, negative control wells without protein (Blank) and positive control wells without compound (DMSO) were set. Each experiment was independently repeated three times.
Data processing: The numerical values of each group were recorded for statistical analysis, and the inhibition rate was calculated according to the following formula: inhibition percentage of compound wells (% inh) = [1 - (ave Blank - Cpd well)/(ave Blank - ave DMSO control)] × 100. Note: ave represents the average value, and Cpd represents the numerical value of the wells containing the compound. A sigmoidal dose-inhibition rate curve was plotted and fitted using a nonlinear regression model in the GraphPad Prism 7.0 software, and the IC50 value was calculated. Table 1. Inhibitory activity of compounds against enzymatic activity of PRMT5

CYP450 2C9 = molecular target: T1, CYP450 2C9 (Homo sapiens, UniProt P11712); assay: Inhibition of human liver microsome CYP450 enzyme 2C9; type: in vitro ADME
T1 construct: from tissue; host or cells: human liver microsomes
Method: (§1) 100 mM K-Buffer: 9.5 mL of stock solution A was mixed with 40.5 mL of stock solution B, the total volume was adjusted to 500 mL with ultrapure water, and the buffer was titrated to pH 7.4 with KOH or H3PO4. • Starting material A (1 M potassium dihydrogen phosphate): 136.5 g of potassium dihydrogen phosphate in 1 L of water; • Stock solution B ([…]): 174.2 g of potassium dihydrogen phosphate in 1 L of water.
(§2) The test substance powder was prepared into a stock solution at a certain concentration with DMSO or another organic solvent, which was then further diluted with a suitable organic solvent.
(§3) The liver microsomal in vitro incubation system for the CYP450 enzyme metabolism phenotype study was a biochemical reaction of the prepared liver microsomes supplemented with a redox coenzyme and an enzyme-specific selective inhibitor under simulated physiological temperature and physiological environment conditions.
(§4) The concentration of the parent drug or a metabolite thereof in the incubation solution was determined by LC-MS/MS. and the IC50 value was calculated.

[1] = Pharmacokinetic assay in mice; type: in vivo, Balb/c mice; details: mouse; for F: PO 10mpk vs IV 2mpk; for AUC(0-inf) / AUC(0-t) / C0 / MRT inf / Vd / Cmax / Tmax: plasma; for MRT inf: read-out: MRT(0-∞); for Vd: read-out: Vz
Summary of the method: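 Male Balb/c mice (6–8 weeks) were dosed 2 mg/kg IV by tail vein or 10 or 100 mg/kg by oral gavage, with the PO group fasted overnight. Orbital blood was taken from 0.083 (IV only) to 24 h for plasma. Cmax, Tmax, CL, Vss, AUC, t1/2 and bioavailability were derived from concentration–time data.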

CYP450 2D6 = molecular target: T2, CYP450 2D6 (Homo sapiens, UniProt P10635); assay: Inhibition of human liver microsome CYP450 enzyme 2D6; type: in vitro ADME
T2 construct: from tissue; host or cells: human liver microsomes
Method: as §1, §2, §3, §4

NCI-H838 cells = assay: Pharmacodynamic study, NCI-H838 subcutaneous xenograft; type: in vivo, mouse
Method: Human non-small cell lung cancer NCI-H838 cells were cultured in monolayer in vitro using the McCoy 5A culture medium (HyClone) containing 10% fetal bovine serum (BI) and 1% penicillin and streptomycin (Beyotime) in an incubator at 37 °C with 5% CO2. The cells were digested with trypsin 2 to 3 times weekly for passaging. When the saturation degree of the cells was 80% to 90%, the cells were collected, counted, and inoculated. 5 × 10^6 (0.1 mL) NCI-H838 cells were subcutaneously inoculated on the right back of each mouse. On about day 29 after inoculation of the cells, the mean tumor volume reached 156 mm^3. The mice were randomly grouped for administration (the animals were divided into an administration group and a control group, with 6 animals in each group). The day of grouping was designated as d0, and intragastric administration was started on d1. The administration was performed once daily at an administration volume of 10 mL/kg. Vehicle control was administered to the control group. The tumor volume was measured 2 to 3 times weekly, and meanwhile, the mice were weighed and the data were recorded; daily observations were made to record the body surface signs of the mice. After the experiment was completed, the tumors were collected, weighed, and photographed for recording.
Calculation formula for tumor volume: Tumor volume (mm^3) = 1/2 × (a×b^2) [formula] (note: a represents long diameter and b represents short diameter) [formula]

[2] = male, Balb/c, 10 mg/kg, PO 10mpk

T2 sequence (P10635 whole entry): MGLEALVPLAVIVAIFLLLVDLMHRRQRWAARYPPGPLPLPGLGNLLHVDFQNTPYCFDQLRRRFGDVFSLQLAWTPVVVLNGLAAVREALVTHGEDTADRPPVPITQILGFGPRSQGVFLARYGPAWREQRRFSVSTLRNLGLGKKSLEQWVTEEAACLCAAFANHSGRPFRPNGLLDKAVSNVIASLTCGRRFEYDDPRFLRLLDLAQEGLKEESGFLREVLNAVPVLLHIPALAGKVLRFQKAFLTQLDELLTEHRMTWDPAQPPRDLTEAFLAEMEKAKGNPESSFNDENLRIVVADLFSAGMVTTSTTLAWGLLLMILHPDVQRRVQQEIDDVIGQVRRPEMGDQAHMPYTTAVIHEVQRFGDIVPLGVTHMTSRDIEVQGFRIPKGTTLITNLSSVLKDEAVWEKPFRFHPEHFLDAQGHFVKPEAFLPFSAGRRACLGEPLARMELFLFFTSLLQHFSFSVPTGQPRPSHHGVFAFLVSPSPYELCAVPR
T1 sequence (P11712 whole entry): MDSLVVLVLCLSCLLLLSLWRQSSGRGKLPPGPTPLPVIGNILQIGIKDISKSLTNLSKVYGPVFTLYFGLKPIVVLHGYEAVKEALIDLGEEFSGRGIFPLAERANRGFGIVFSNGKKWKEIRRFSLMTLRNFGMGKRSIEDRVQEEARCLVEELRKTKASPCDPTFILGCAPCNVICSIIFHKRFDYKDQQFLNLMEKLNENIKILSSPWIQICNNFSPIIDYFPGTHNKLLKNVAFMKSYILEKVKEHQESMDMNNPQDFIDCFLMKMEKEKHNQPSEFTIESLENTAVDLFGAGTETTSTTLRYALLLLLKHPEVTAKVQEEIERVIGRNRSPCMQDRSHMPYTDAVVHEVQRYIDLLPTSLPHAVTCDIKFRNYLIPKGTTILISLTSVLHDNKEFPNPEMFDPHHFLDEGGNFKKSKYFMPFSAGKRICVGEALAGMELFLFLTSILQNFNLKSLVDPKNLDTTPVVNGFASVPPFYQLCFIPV
PRMT5, sequence (O14744 whole entry): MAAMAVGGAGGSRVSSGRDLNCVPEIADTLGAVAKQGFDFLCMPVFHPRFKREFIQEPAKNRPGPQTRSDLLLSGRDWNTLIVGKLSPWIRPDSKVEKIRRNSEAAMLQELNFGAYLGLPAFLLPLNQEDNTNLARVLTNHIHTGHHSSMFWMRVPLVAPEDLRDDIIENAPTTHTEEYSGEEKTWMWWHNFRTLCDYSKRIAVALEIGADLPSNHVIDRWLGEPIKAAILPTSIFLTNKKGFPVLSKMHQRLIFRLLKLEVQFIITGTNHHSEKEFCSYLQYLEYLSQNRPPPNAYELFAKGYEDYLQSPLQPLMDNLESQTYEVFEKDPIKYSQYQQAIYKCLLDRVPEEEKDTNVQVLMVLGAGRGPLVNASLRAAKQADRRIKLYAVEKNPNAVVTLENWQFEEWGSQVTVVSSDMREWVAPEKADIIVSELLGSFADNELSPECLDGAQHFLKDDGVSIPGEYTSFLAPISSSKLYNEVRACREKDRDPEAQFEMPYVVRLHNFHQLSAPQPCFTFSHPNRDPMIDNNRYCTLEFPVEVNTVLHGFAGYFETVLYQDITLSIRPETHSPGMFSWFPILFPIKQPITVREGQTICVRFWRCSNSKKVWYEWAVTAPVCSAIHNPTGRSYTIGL
PRMT5, sequence (Q9BQA1 whole entry partner): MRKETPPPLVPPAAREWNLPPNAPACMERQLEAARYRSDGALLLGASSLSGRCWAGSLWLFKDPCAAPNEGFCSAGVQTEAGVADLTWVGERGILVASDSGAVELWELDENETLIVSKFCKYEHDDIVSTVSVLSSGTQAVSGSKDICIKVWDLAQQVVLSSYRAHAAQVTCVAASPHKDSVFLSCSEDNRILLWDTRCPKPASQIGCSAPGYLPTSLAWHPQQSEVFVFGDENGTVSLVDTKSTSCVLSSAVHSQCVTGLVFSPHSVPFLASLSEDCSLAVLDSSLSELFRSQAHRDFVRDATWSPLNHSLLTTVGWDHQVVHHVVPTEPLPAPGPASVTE

Compound: Cn1ncc2c(N)nc3cc(F)c(C(=O)N4CCOC[C@@H]4c4ccc5c(c4)OC(F)(F)O5)cc3c21 [Example I-7]
- IC50 (PRMT5): 0.0284 µM
- IC50 (CYP450 2C9; human, microsomes, pH 7.4): > 10 µM
- CLz ([1]; IV 2mpk): 13 mL/min/kg
- R_AUC(t/∞) ([1]; IV 2mpk): 95.1%
- t1/2z ([1]; IV 2mpk): 1.9 h
- R_AUC(t/∞) ([1]; PO 10mpk): 97.1%
- t1/2z ([1]; PO 10mpk): 4.9 h
- F [1]: 159.9%
- AUC(0-inf) ([1]; 2 mg/kg, IV 2mpk): 4.89 µM·h
- AUC(0-t) ([1]; 2 mg/kg, IV 2mpk): 4.65 µM·h
- C0 ([1]; 2 mg/kg, IV 2mpk): 2.62 µM
- MRT inf ([1]; 2 mg/kg, IV 2mpk): 2.7 h
- Vd ([1]; 2 mg/kg, IV 2mpk): 2.3 L/kg
- AUC(0-inf) ([1]; 10 mg/kg, PO 10mpk): 39.1 µM·h
- AUC(0-t) ([1]; 10 mg/kg, PO 10mpk): 38 µM·h
- Cmax ([1]; 10 mg/kg, PO 10mpk): 5.01 µM
- Tmax ([1]; 10 mg/kg, PO 10mpk): 2 h
- MRT inf ([1]; 10 mg/kg, PO 10mpk): 6.1 h
- IC50 (CYP450 2D6; human, microsomes, pH 7.4): > 10 µM

- IC50 (PRMT5): 0.0346 µM
- IC50 (CYP450 2C9; human liver microsomes, 2C9, read-out: IC50): > 10 µM
- AUC(0-inf) ([1]; male, Balb/c, 2 mg/kg, IV 2mpk): 6.37 µM·h
- AUC(0-t) ([1]; male, Balb/c, 2 mg/kg, IV 2mpk): 6.24 µM·h
- C0 ([1]; male, Balb/c, 2 mg/kg, IV 2mpk): 1.96 µM
- MRT inf ([1]; male, Balb/c, 2 mg/kg, IV 2mpk): 4.9 h
- Vd ([1]; male, Balb/c, 2 mg/kg, IV 2mpk): 4.3 L/kg
- AUC(0-inf) [1, 2]: 34.5 µM·h
- AUC(0-t) [1, 2]: 34.4 µM·h
- Cmax [1, 2]: 4.76 µM
- Tmax [1, 2]: 1 h
- MRT inf [1, 2]: 5.2 h
- CLz ([1]; IV 2mpk): 12 mL/min/kg
- R_AUC(t/∞) ([1]; IV 2mpk): 97.9%
- t1/2z ([1]; IV 2mpk): 4.4 h
- R_AUC(t/∞) ([1]; PO 10mpk): 99.6%
- t1/2z ([1]; PO 10mpk): 3.1 h
- F [1]: 108%
- IC50 (CYP450 2D6; human liver microsomes, 2D6, read-out: IC50): > 10 µM
Compound: Cn1ncc2c(N)nc3cc(F)c(C(=O)N(Cc4ccc5c(c4)OC(F)(F)O5)C4CC4)cc3c21 [Example I-16]
- Day 31 TGI (NCI-H838 cells; 10 mpk PO QD): 97%

Compound: Cn1ncc2c(N)nc3cnc(C(=O)N4CCOC[C@@H]4c4ccc5c(c4)OC(F)(F)O5)cc3c21 [Example I-38]
- Day 31 TGI (NCI-H838 cells; 10 mpk PO QD): 75%
- Day 31 TGI (NCI-H838 cells; 30 mpk PO QD): 105%
- Day 31 TGI (NCI-H838 cells; 100 mpk PO QD): 107%
- AUC(0-t) ([1]; 2 mg/kg, IV 2mpk): 7.87 µM·h
- AUC(0-t) ([1]; 100 mg/kg, PO 100mpk): 710 µM·h
- Cmax ([1]; 100 mg/kg, PO 100mpk): 52.1 µM
